Assay results reported in ChEMBL document CHEMBL3102730, “Synthesis and evaluation of isoleucine derived angiotensin II AT(2) receptor ligands” (Bioorg Med Chem Lett, 2014).
pKi: −log10 of the molar value. Activity calls are given as the source filed them. No cut-off for these calls is given here.

Columns and labels:
[1] = molecular target: T1, Type-1 angiotensin II receptor (Homo sapiens) (UniProt P30556); assay: Binding affinity to AT1 receptor (unknown origin)
T1 sequence (whole entry): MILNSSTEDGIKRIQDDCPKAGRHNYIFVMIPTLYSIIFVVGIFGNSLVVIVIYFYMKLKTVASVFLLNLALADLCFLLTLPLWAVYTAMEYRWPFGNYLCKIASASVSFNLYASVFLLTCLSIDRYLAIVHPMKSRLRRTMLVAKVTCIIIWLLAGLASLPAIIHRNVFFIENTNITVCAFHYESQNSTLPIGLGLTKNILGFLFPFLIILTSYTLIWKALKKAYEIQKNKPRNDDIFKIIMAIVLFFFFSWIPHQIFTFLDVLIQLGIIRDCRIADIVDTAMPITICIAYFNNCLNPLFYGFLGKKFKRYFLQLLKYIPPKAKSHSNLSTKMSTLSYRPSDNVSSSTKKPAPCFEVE

[2] = molecular target: T2, Type-2 angiotensin II receptor (Homo sapiens) (UniProt P50052); assay: Displacement of [125I]CGP-42112A from human AT2 receptor expressed in HEK293 cells at 1 uM; format: cell-based
T2 sequence (whole entry): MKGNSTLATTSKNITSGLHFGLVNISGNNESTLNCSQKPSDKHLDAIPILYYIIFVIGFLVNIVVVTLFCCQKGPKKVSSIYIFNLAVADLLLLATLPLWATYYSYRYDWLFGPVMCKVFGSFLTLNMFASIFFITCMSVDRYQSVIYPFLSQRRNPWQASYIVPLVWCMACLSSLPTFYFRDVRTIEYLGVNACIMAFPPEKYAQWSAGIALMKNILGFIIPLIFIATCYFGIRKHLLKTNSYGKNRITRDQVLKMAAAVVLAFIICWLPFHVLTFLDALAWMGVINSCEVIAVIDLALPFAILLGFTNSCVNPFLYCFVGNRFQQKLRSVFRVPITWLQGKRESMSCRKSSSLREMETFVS

[3] = molecular target: T2, Type-2 angiotensin II receptor (Homo sapiens); assay: Displacement of [125I]CGP-42112A from human AT2 receptor expressed in HEK293 cells at 10 uM; format: cell-based
[4] = molecular target: T3, Type-2 angiotensin II receptor (Homo sapiens, UniProt P50052); assay: Displacement of [125I]CGP-42112A from human AT2 receptor expressed in HEK293 cells; format: cell-based
T3 sequence (P50052 whole entry): T2 sequence (whole entry)

[5] = molecular target: T3, Type-2 angiotensin II receptor; assay: Displacement of [125I]Sarile from human AT2 receptor expressed in HEK293 cells; format: cell-based

| Activity [1] | inhibition [2] | inhibition [3] | pKi [4] | pKi [5] | SMILES |
| --- | --- | --- | --- | --- | --- |
| inactive | 5% | 24% | 4.74 |  | CC[C@H](C)[C@H](NC(=O)c1cccc(Cn2ccnc2)c1)C(=O)NS(=O)(=O)c1ccccc1 |
| inactive | 4% | 17% | 4.38 |  | CC[C@H](C)[C@H](NC(=O)c1cccc(Cn2ccnc2)c1)C(=O)Nc1nccs1 |
| inactive | 3% | 20% | 5.04 |  | CC[C@H](C)[C@H](NC(=O)c1cccc(Cn2ccnc2)c1)C(=O)NNS(=O)(=O)c1ccc(OC)cc1 |
| inactive |  |  | 5.00 |  | CCCCS(=O)(=O)NC(=O)[C@@H](NC(=O)c1cccc(Cn2ccnc2)c1)[C@@H](C)CC |
| inactive | 6% | 9% |  |  | CC[C@H](C)[C@H](NC(=O)c1cccc(Cn2ccnc2)c1)C(=O)NC#N |
| inactive | inactive | inactive |  |  | CC[C@H](C)[C@H](NC(=O)c1cccc(Cn2ccnc2)c1)C(N)=O |
| inactive | 6% | 18% | < 4.00 |  | CC[C@H](C)[C@H](NC(=O)c1cccc(Cn2ccnc2)c1)C(=O)NNS(=O)(=O)c1ccccc1 |
| inactive | inactive | inactive |  |  | CC[C@H](C)[C@H](NC(=O)c1cccc(Cn2ccnc2)c1)c1nn[nH]n1 |
| inactive | 10% | 27% | 5.07 |  | CC[C@H](C)[C@H](NC(=O)c1cccc(Cn2ccnc2)c1)C(=O)NNS(=O)(=O)c1c(C)cc(C)cc1C |
| inactive | 6% | 14% |  |  | CC[C@H](C)[C@H](NC(=O)c1cccc(Cn2ccnc2)c1)C(=O)NCC(F)(F)F |
| inactive | 4% | 20% | 4.54 |  | CC[C@H](C)[C@H](NC(=O)c1cccc(Cn2ccnc2)c1)C(=O)NNS(=O)(=O)c1ccc(C)cc1 |
| inactive |  |  | < 4.00 |  | CC[C@H](C)[C@H](NC(=O)c1cccc(Cn2ccnc2)c1)C(=O)NNC(=O)OC(C)(C)C |
| inactive |  |  | < 4.00 |  | CCCCS(=O)(=O)NNC(=O)[C@@H](NC(=O)c1cccc(Cn2ccnc2)c1)[C@@H](C)CC |
| inactive | inactive | 3% |  |  | CCCCNC(=O)[C@@H](NC(=O)c1cccc(Cn2ccnc2)c1)[C@@H](C)CC |
| inactive | inactive | 4% |  |  | CC[C@H](C)[C@H](NC(=O)c1cccc(Cn2ccnc2)c1)C(=O)NO |
| inactive |  |  |  | 4.33 | CC[C@H](C)[C@H](NC(=O)c1cccc(Cn2ccnc2)c1)C(=O)O |
| inactive |  |  | < 4.00 |  | CCCCCS(=O)(=O)NNC(=O)[C@@H](NC(=O)c1cccc(Cn2ccnc2)c1)[C@@H](C)CC |
